In paper PMC3914206:

Key:
Type in all cases: binding
panel of 442 kinases [1] = molecular target: T1, panel of 442 kinases (Homo sapiens, UniProt P36888, D835Y); conditions: Compound Concentration 10 µM
T1 construct: purchased KINOMEscan
T1 sequence (P36888 27-993 D835Y): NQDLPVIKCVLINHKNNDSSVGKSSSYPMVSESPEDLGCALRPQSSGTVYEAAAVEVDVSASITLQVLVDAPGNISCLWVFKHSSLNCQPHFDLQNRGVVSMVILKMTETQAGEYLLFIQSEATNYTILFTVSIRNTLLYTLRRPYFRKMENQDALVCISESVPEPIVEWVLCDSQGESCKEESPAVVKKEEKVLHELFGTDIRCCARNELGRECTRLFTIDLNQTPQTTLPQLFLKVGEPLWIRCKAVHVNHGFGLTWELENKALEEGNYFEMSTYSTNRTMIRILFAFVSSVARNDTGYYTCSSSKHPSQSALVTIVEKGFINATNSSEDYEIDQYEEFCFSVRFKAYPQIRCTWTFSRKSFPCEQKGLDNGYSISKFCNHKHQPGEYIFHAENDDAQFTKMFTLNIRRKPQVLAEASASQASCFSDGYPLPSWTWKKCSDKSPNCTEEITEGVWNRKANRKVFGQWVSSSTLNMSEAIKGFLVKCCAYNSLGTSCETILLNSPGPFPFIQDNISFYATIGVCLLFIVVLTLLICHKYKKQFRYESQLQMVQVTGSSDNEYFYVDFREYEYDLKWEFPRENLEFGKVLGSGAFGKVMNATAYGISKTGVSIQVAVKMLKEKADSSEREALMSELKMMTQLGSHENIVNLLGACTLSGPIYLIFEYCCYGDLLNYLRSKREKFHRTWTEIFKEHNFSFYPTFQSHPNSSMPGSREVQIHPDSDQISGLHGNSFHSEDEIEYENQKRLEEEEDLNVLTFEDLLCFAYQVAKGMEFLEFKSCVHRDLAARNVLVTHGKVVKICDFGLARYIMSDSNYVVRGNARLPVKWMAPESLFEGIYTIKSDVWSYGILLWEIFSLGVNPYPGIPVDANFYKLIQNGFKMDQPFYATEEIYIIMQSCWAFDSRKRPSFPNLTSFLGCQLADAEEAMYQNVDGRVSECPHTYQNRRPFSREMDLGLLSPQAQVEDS
Source text: (§1) We assessed the selectivity of members of this scaffold using the KINOMEscan methodology across a near comprehensive panel of 442 kinases [[18,27]].

panel of 442 kinases [2] = molecular target: T2, panel of 442 kinases (Homo sapiens, UniProt P54764); conditions: Compound Concentration 10 µM
T2 construct: purchased KINOMEscan
Source text: as §1

panel of 442 kinases [3] = molecular target: T3, panel of 442 kinases (Homo sapiens, UniProt P04629); conditions: kinase TRKA; compound concentration 10 µM
T3 construct: purchased KINOMEscan
Source text: as §1

T2 sequence (P54764 20-986): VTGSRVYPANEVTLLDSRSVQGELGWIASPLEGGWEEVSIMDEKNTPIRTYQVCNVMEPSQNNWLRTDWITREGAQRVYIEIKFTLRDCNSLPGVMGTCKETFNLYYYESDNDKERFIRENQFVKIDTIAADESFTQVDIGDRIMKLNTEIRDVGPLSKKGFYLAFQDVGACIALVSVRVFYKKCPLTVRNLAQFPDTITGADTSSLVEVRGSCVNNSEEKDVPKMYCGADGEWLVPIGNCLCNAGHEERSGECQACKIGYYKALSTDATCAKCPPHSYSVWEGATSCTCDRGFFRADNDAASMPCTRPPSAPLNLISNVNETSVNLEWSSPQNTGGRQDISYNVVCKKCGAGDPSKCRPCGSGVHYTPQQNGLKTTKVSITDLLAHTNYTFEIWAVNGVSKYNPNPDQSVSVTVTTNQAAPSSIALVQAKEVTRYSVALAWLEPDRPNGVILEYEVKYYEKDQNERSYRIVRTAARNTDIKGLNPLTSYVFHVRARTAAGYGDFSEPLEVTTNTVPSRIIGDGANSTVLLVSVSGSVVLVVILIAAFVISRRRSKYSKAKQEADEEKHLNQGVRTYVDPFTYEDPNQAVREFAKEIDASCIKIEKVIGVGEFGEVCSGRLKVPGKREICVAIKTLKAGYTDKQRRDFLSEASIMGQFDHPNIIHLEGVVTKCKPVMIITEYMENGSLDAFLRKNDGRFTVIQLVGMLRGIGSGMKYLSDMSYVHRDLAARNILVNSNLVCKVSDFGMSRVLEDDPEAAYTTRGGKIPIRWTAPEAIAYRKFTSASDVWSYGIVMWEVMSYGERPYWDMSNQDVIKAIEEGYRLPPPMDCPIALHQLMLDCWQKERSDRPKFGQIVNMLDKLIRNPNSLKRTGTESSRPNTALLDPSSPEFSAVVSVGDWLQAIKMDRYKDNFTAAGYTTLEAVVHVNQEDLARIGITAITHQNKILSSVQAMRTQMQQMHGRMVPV
T3 sequence (P04629 33-796): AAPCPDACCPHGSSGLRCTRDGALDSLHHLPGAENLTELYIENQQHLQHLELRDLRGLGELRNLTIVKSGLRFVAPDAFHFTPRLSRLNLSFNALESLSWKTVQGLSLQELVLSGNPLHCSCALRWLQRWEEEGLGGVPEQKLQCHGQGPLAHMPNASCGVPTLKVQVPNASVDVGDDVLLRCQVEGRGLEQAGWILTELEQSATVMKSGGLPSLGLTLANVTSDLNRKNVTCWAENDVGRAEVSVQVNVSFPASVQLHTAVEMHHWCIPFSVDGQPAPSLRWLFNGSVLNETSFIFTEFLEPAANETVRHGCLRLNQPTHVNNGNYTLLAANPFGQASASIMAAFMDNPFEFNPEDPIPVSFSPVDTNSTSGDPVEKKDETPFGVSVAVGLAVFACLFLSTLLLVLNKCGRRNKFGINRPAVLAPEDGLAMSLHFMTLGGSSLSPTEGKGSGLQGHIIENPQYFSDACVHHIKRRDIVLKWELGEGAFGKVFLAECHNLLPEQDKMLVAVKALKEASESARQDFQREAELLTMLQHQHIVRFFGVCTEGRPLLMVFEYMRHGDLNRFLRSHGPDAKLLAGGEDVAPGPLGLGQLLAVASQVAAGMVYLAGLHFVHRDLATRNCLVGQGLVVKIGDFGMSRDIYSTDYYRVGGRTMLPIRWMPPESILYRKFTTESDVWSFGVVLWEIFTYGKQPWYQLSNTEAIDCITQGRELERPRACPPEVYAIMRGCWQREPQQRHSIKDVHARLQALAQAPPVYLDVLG

Structure (SMILES) | KINOMEscan: FLT3(D835Y) (panel of 442 kinases [1]) | KINOMEscan: EPHA4 (panel of 442 kinases [2]) | % Ctrl, TRKA (panel of 442 kinases [3])
COc1cc(C(=O)N2CCC(N3CCN(C)CC3)CC2)ccc1Nc1ncc2c(n1)N(C)c1ccccc1C(=O)N2C [15 (LRRK2-IN-1)] | 100 | 89 | 69 % Ctrl
CCOc1cc(C(=O)N2CCC(N3CCN(C)CC3)CC2)ccc1Nc1ncc2c(n1)N(C1CCCC1)c1ccccc1C(=O)N2C [Compound 26] | 100 | 100 | 100 % Ctrl
COc1cc(C(=O)N2CCC(N3CCN(C)CC3)CC2)ccc1Nc1ncc2c(n1)N1CCc3cccc(c31)C(=O)N2C [Compound 24] | – | 97 | 93 % Ctrl
COc1cc(C(=O)N2CCC(N3CCN(C)CC3)CC2)ccc1Nc1ncc2c(n1)N(C1CCCC1)c1ccccc1C(=O)N2C [Compound 25, 11-cyclopentyl-2-((2-methoxy-4-(4-(4-methylpiperazin-1-yl)piperidine-1-carbonyl)phenyl)amino)-5-methyl-5H-benzo[e]pyrimido[5,4-b][1,4]diazepin-6(11H)-one] | 100 | 100 | 78 % Ctrl
